Structures are written as SMILES. Counter-ions that a name gives are not always drawn.

Usually IC50 stands for the point on the concentration scale where inhibition reaches its midpoint. A low value points to higher potency.

The experiment deals with NLRP3 (Homo sapiens (Human), UniProt Q96P20). Nature of the experiment: THP-1 cells pyroptosis assay (LPS priming, nigericin, resazurin readout). The class given is cell-based. The settings on record: 1.0 μg/ml LPS, nigericin 5 μM, NLRP3 inhibitory activity. On the procedure: THP-1 cells (ATCC #TIB-202) were grown in RPMI containing L-glutamine (Gibco #11835) supplemented with 1 mM sodium pyruvate (Sigma #S8636) and penicillin (100 units/ml)/streptomycin (0.1 mg/ml) (Sigma #P4333) in 10% Fetal Bovine Serum (FBS) (Sigma #F0804). The cells were routinely passaged and grown to confluency (10^6 cells/ml). On the day of the experiment, THP-1 cells were harvested and resuspended into RPMI medium (without FBS). The cells were then counted and viability (>90%) checked by Trypan blue (Sigma #T8154). Appropriate dilutions were made to give a concentration of 625,000 cells/ml. To this diluted cell solution was added LPS (Sigma #L4524) to give a 1 μg/ml Final Assay Concentration (FAC). 40 μl of the final preparation was aliquoted into each well of a 96-well plate. The plate thus prepared was used for compound screening. The following method step-by-step assay was followed for compound screening. • 1. Seed THP-1 cells (25,000 cells/well) containing 1.0 μg/ml LPS in 40 μl of RPMI medium (without FBS) in 96-well, black walled, clear bottom cell culture plates coated with poly-D-lysine (VWR #734-0317) • 2. Add […] compound (8 points half-log dilution, with […] top dose) or vehicle (DMSO 0.1% FAC) to the appropriate wells • 3. Incubate for 3 hrs at 37° C., 5% CO2 • 4. Add 5 μl nigericin (Sigma #N7143) (FAC 5 μM) to all wells • 5. Incubate for 1 hr at 37° C., 5% CO2 • 6. At the end of the incubation period, spin plates at 300×g for 3 mins and remove supernatant • 7. Then add 50 μl of resazurin (Sigma #R7017) (FAC 100 μM resazurin in RPMI medium without FBS) and incubate plates for a further 1-2 hrs at 37° C. and 5% CO2 • 8. Plates were read in an Envision reader at Ex 560 nm and Em 590 nm • 9. IC50 data is fitted to a non-linear regression equation (log inhibitor vs response-variable slope 4-parameters) The results of the pyroptosis assay are summarised in Table 1 below as THP IC50.
Chain of NLRP3 (Q96P20 whole entry): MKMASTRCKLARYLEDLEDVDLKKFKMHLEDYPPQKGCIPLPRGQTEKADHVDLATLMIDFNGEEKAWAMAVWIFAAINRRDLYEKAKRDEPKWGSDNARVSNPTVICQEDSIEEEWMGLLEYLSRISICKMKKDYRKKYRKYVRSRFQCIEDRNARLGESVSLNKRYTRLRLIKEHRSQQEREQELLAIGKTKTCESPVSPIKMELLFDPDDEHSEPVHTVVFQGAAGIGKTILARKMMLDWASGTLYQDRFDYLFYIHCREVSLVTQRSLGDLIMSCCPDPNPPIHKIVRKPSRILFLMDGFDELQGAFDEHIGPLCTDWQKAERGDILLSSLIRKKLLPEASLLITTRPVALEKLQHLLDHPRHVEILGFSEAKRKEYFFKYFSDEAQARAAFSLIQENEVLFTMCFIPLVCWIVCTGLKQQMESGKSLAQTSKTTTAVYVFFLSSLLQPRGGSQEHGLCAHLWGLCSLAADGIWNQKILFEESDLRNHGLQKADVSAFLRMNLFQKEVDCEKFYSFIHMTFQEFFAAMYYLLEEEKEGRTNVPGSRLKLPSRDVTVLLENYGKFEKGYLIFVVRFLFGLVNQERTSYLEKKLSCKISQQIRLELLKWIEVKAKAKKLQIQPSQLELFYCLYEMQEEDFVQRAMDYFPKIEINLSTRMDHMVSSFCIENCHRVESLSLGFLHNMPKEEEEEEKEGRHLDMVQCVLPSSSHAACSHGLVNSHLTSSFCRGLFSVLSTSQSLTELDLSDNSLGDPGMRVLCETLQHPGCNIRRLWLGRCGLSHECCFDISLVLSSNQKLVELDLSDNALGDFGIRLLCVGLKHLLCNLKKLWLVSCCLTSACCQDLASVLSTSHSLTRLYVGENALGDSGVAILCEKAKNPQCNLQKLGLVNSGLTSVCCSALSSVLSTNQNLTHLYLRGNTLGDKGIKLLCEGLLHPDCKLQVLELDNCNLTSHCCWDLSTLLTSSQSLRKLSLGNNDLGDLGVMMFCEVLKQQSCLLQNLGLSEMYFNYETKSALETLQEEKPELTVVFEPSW
A general note: The colour change of resazurin is a common sign of viable cells or microbes.

Turning to `N#Cc1cc(-c2ccc3c(c2CC(=O)NS(=O)(=O)c2ccn(C4CC4)n2)CCC3)ccn1` [Example 1, 2-(5-(2-Cyanopyridin-4-yl)-2,3-dihydro-1H-inden-4-yl)-N-((1-cyclopropyl-1H-pyrazol-3-yl)sulfonyl)acetamide], the IC50 was in the range of 1 to 5 µM. Then `CC(C)c1cc(F)cc(-c2ccncc2)c1CC(=O)NS(=O)(=O)c1ccn(C2CC2)n1` [Example 2, N-((1-Cyclopropyl-1H-pyrazol-3-yl)sulfonyl)-2-(4-fluoro-2-isopropyl-6-(pyridin-4-yl)phenyl)acetamide, potassium salt], with no more than 1 µM; and `COc1cc(-c2cc(F)cc(C(C)C)c2CC(=O)NS(=O)(=O)c2cn(C3CC3)cn2)ccn1` [Example 3, N-((1-Cyclopropyl-1H-imidazol-4-yl)sulfonyl)-2-(4-fluoro-2-isopropyl-6-(2-methoxypyridin-4-yl)phenyl)acetamide], with 1 to 5 µM; and `COc1cc(-c2cc(F)cc(C(C)C)c2CC(=O)NS(=O)(=O)c2ccn(C3CC3)n2)ccn1` [Example 4, N-((1-Cyclopropyl-1H-pyrazol-3-yl)sulfonyl)-2-(4-fluoro-2-isopropyl-6-(2-methoxypyridin-4-yl)phenyl)acetamide], with 1 to 5 µM. For `COc1cc(-c2ccc3c(c2CC(=O)NS(=O)(=O)c2cnn(C4CC4)n2)CCC3)ccn1` [Example 5, N-((2-Cyclopropyl-2H-1,2,3-triazol-4-yl)sulfonyl)-2-(5-(2-methoxypyridin-4-yl)-2,3-dihydro-1H-inden-4-yl)acetamide], the IC50 lay in the range of 5 to 10 µM. Then `CC(C)c1cc(F)cc(-c2cccnc2)c1CC(=O)NS(=O)(=O)c1cn(C2CC2)cn1` [Example 6, N-((1-Cyclopropyl-1H-imidazol-4-yl)sulfonyl)-2-(4-fluoro-2-isopropyl-6-(pyridin-3-yl)phenyl)acetamide], with 5 to 10 µM. Regarding `CC(C)c1cc(F)cc(-c2ccnc(C#N)c2)c1CC(=O)NS(=O)(=O)c1cnn(C2CC2)n1` [Example 7, 2-(2-(2-Cyanopyridin-4-yl)-4-fluoro-6-isopropylphenyl)-N-((2-cyclopropyl-2H-1,2,3-triazol-4-yl)sulfonyl)acetamide], the IC50 fell in the range of 5 to 10 µM. Then `N#Cc1cc(-c2ccc3c(c2CC(=O)NS(=O)(=O)c2cnn(C4CC4)n2)CCC3)ccn1` [Example 8, 2-(5-(2-Cyanopyridin-4-yl)-2,3-dihydro-1H-inden-4-yl)-N-((2-cyclopropyl-2H-1,2,3-triazol-4-yl)sulfonyl)acetamide], with 1 to 5 µM; and `CC(C)c1cc(F)cc(-c2ccnc(C#N)c2)c1CC(=O)NS(=O)(=O)c1cnn(C2CC2)c1` [Example 9, 2-(2-(2-Cyanopyridin-4-yl)-4-fluoro-6-isopropylphenyl)-N-((1-cyclopropyl-1H-pyrazol-4-yl)sulfonyl)acetamide], with 5 to 10 µM; and `COc1cc(-c2cc(F)cc(C(C)C)c2C(O)C(=O)NS(=O)(=O)c2cnn(C3CC3)c2)ccn1` (stereo not drawn) [Example 10, N-((1-Cyclopropyl-1H-pyrazol-4-yl)sulfonyl)-2-(4-fluoro-2-isopropyl-6-(2-methoxypyridin-4-yl)phenyl)-2-hydroxyacetamide], with 5 to 10 µM. Then `COC1(c2cc(S(=O)(=O)NC(=O)Cc3c4c(cc5c3CCC5)CCC4)nn2C(C)C)COC1` [Example 12, 2-(1,2,3,5,6,7-Hexahydro-s-indacen-4-yl)-N-((1-isopropyl-5-(3-methoxyoxetan-3-yl)-1H-pyrazol-3-yl)sulfonyl)acetamide], with 1 to 5 µM. Compound `COC1(c2cc(S(=O)(=O)NC(=O)Cc3c(-c4ccnc(C#N)c4)ccc4c3CCC4)nn2C(C)C)COC1` [Example 13, 2-(5-(2-Cyanopyridin-4-yl)-2,3-dihydro-1H-inden-4-yl)-N-((1-isopropyl-5-(3-methoxyoxetan-3-yl)-1H-pyrazol-3-yl)sulfonyl)acetamide, potassium salt] returned an IC50 of 5 to 10 µM. Next, `COC1(c2cc(S(=O)(=O)NC(=O)Cc3c4c(cc5c3CCC5)CCC4)nn2C2CC2)COC1` [Example 14, N-((1-Cyclopropyl-5-(3-methoxyoxetan-3-yl)-1H-pyrazol-3-yl)sulfonyl)-2-(1,2,3,5,6,7-hexahydro-s-indacen-4-yl)acetamide]: 1 to 5 µM; `CC(c1cc(S(=O)(=O)NC(=O)Cc2c3c(cc4c2CCC4)CCC3)nn1C1CC1)N(C)C` (stereo not drawn) [Example 15, N-((1-Cyclopropyl-5-(1-(dimethylamino)ethyl)-1H-pyrazol-3-yl)sulfonyl)-2-(1,2,3,5,6,7-hexahydro-s-indacen-4-yl)acetamide]: 1 to 5 µM. As for `CC(C)c1cc(F)cc(C(C)C)c1CC(=O)NS(=O)(=O)c1cc(CN(C)C)n(C2CC2)n1` [Example 16, N-((1-Cyclopropyl-5-((dimethylamino)methyl)-1H-pyrazol-3-yl)sulfonyl)-2-(4-fluoro-2,6-diisopropylphenyl)acetamide], the IC50 was 1 to 5 µM.

On to `COc1cc(-c2ccc3c(c2CC(=O)NS(=O)(=O)c2ccn(C4CC4)n2)CCC3)ccn1` [Example 17, N-((1-Cyclopropyl-1H-pyrazol-3-yl)sulfonyl)-2-(5-(2-methoxypyridin-4-yl)-2,3-dihydro-1H-inden-4-yl)acetamide], for which the IC50 fell in the range of 1 to 5 µM. In the case of `O=C(Cc1c2c(cc3c1CCC3)CCC2)NS(=O)(=O)c1ccn(C2CC2)n1` [Example 19, N-((1-Cyclopropyl-1H-pyrazol-3-yl)sulfonyl)-2-(1,2,3,5,6,7-hexahydro-s-indacen-4-yl)acetamide], the IC50 lay in the range of 5 to 10 µM.

In turn, `COc1cc(-c2cc(F)cc(C(C)C)c2CC(=O)NS(=O)(=O)c2cnn(C3CC3)n2)ccn1` [Example 20, N-((2-Cyclopropyl-2H-1,2,3-triazol-4-yl)sulfonyl)-2-(4-fluoro-2-isopropyl-6-(2-methoxypyridin-4-yl)phenyl)acetamide] had an IC50 of 1 to 5 µM.

Take `CC(C)c1cc(F)cc(-c2cccnc2)c1CC(=O)NS(=O)(=O)c1ncn(C2CC2)n1` [Example 22, N-((1-Cyclopropyl-1H-1,2,4-triazol-3-yl)sulfonyl)-2-(4-fluoro-2-isopropyl-6-(pyridin-3-yl)phenyl)acetamide]: the IC50 was in the range of 1 to 5 µM. Next, `COc1cc(-c2ccc3c(c2CC(=O)NS(=O)(=O)c2cnn(C4CC4)c2)CCC3)ccn1` [Example 23, N-((1-Cyclopropyl-H-pyrazol-4-yl)sulfonyl)-2-(5-(2-methoxypyridin-4-yl)-2,3-dihydro-1H-inden-4-yl)acetamide]: 1 to 5 µM; `CC(C)c1cc(F)cc(C(C)C)c1CC(=O)NS(=O)(=O)c1ncn(C2CC2)n1` [Example 25, N-((1-Cyclopropyl-H-1,2,4-triazol-3-yl)sulfonyl)-2-(4-fluoro-2,6-diisopropylphenyl)acetamide]: 5 to 10 µM; `CC(C)c1cc(F)cc(C(C)C)c1CC(=O)NS(=O)(=O)c1cnn(C2CC2)n1` [Example 26, N-((2-Cyclopropyl-2H-1,2,3-triazol-4-yl)sulfonyl)-2-(4-fluoro-2,6-diisopropylphenyl)acetamide]: 1 to 5 µM. `CC(C)c1cc(F)cc(-c2cccnc2)c1CC(=O)NS(=O)(=O)c1cnn(C2CC2)n1` [Example 27, N-((2-Cyclopropyl-2H-1,2,3-triazol-4-yl)sulfonyl)-2-(4-fluoro-2-isopropyl-6-(pyridin-3-yl)phenyl)acetamide] yielded an IC50 of 1 to 5 µM. Next, `CC(C)c1cc(F)cc(C(C)C)c1CC(=O)NS(=O)(=O)c1cn(C2CC2)cn1` [Example 28, N-((1-Cyclopropyl-1H-imidazol-4-yl)sulfonyl)-2-(4-fluoro-2,6-diisopropylphenyl)acetamide]: 1 to 5 µM; `COC1(c2cc(S(=O)(=O)NC(=O)Cc3c(C(C)C)cc(F)cc3C(C)C)nn2C(C)C)COC1` [Example 29, 2-(4-Fluoro-2,6-diisopropylphenyl)-N-((1-isopropyl-5-(3-methoxyoxetan-3-yl)-1H-pyrazol-3-yl)sulfonyl)acetamide]: 1 to 5 µM. `N#Cc1cc(-c2ccc3c(c2CC(=O)NS(=O)(=O)c2cnn(C4CC4)c2)CCC3)ccn1` [Example 30, 2-(5-(2-Cyanopyridin-4-yl)-2,3-dihydro-H-inden-4-yl)-N-((1-cyclopropyl-1H-pyrazol-4-yl)sulfonyl)acetamide] displayed an IC50 of 5 to 10 µM.

As to `CC(C)c1cc(F)cc(-c2ccnc(C#N)c2)c1CC(=O)NS(=O)(=O)c1cn(C2CC2)cn1` [Example 31, 2-(2-(2-Cyanopyridin-4-yl)-4-fluoro-6-isopropylphenyl)-N-((1-cyclopropyl-1H-imidazol-4-yl)sulfonyl)acetamide], the IC50 is 5 to 10 µM.

These data come from US11530200B2, “Compounds” (Inflazome Limited, priority 2018, dated 2022).
